Data from the NIST ThermoML archive (doi:10.1016/j.jct.2019.01.022).

What was measured:
[1] = Molar enthalpy of transition or fusion; conditions: DSC
[2] = for mass density: 293 K, 101.33 kPa, Pycnometric method; for vapor or sublimation pressure: Transpiration method; for Normal melting temperature: DTA

CC(C)NC(=O)Nc1ccccc1 [1-isopropyl-3-phenylurea]
Crystal
Conditions | Molar enthalpy of transition or fusion [kJ/mol] | Normal melting temperature [°C] | mass density [kg/m3]
[1] | 22.4 | – | –
[2] | – | 156.2 | 1050

[2], Crystal
Conditions | vapor or sublimation pressure [kPa]
393.3 K | 0.00201
396.2 K | 0.00261
400.3 K | 0.00373
403.2 K | 0.00478
406.5 K | 0.00631
409.6 K | 0.00835
411.7 K | 0.00986
413.7 K | 0.01159
416.5 K | 0.01436
419.6 K | 0.01814
421.5 K | 0.02123
423.8 K | 0.02493

NC(=O)Nc1ccccc1 [N-phenylurea]
[2], Crystal
Conditions | vapor or sublimation pressure [kPa]
386 K | 0.00061
391.7 K | 0.00103
396.2 K | 0.00154
399.5 K | 0.00209
402.4 K | 0.00275
406.2 K | 0.00394
408.3 K | 0.0047
411.5 K | 0.00607
413.6 K | 0.00714

CC(C)(C)NC(=O)Nc1ccccc1 [1-tert-butyl-3-phenylurea]
Conditions | Molar enthalpy of transition or fusion, Crystal 1 [kJ/mol] | Molar enthalpy of transition or fusion, Crystal 2 [kJ/mol] | Normal melting temperature, Crystal 1 [°C] | Triple point temperature, Crystal 2, DSC [K] | mass density, Crystal 2 [kg/m3]
[1] | 24.7 | 7.8 | – | – | –
[2] | – | – | 168 | 432 | 1062

[2], Crystal 2
Conditions | vapor or sublimation pressure [kPa]
385.9 K | 0.00162
390 K | 0.00233
392.4 K | 0.00294
396.3 K | 0.00405
400.2 K | 0.00579
403.3 K | 0.00737
406.2 K | 0.00973
410.5 K | 0.01397
416.2 K | 0.02115
420.6 K | 0.03129
424 K | 0.03902
426.6 K | 0.0483
428.8 K | 0.05831
430.5 K | 0.066
